{"source": "patent US11793845B2", "about": "“Composition for ameliorating peripheral sensory neuropathy” (KINKI UNIVERSITY, priority 2016, dated 2023)", "type_in_all_cases": "in vivo", "settings_in_all_cases": "duloxetine 30 mg/kg daily", "key": {"[1]": {"test_system": "Peripheral Sensory Neuropathy Induced by Paclitaxel in Mice", "assay": "cold plate test, paclitaxel-induced peripheral sensory neuropathy", "description": "The effect of the Lentinus edodes mycelium extract on the paresthesia to cold stimulation was tested by performing the cold plate test. The mice in the three groups in the above (1) were put on a cold plate set to 10° C. and a response time for avoidance (a latency) was measured. The shorter latency means that the mouse avoids the cold stimulation of the cold plate more.\nIn the present test, the mice were divided into four groups by a difference in test objects. As in Example 1, male Balb/c mice of 6 to 7 weeks old were used. The mice were divided into a total of four groups, a control group, a paclitaxel administration group, and two different paclitaxel and Lentinus edodes mycelium extract administration groups (paclitaxel+Lentinus edodes mycelium extract administration groups). […] Further, a group in which the Lentinus edodes mycelium extract was administered to each mouse once a day at a dose of 1 g/kg (hereinafter referred to as “1 g/kg administration group”) and a group in which the Lentinus edodes mycelium extract was administered to each mouse once a day at a dose of 2 g/kg (hereinafter referred to as “2 g/kg administration group”) were prepared.\nEvaluation was performed in the same manner as in the test with oxaliplatin. Referring to FIG. 4, the horizontal axis indicates the elapsed time after administration (days) and the vertical axis indicates the avoidance response time (seconds). Open circles with a solid line represent the control group. Filled circles with a solid line represent the group in which only paclitaxel was administered. Open squares with a dash line and filled squares with a dash line represent the groups in which paclitaxel and the Lentinus edodes mycelium extract were administered at the same time (paclitaxel+Lentinus edodes mycelium extract administration groups). […] When the difference with the control group was determined to be significant using a significance level of 5%, the data were marked by “*”. […]"}, "[2]": {"test_system": "Peripheral Sensory Neuropathy Induced by Vincristine in Mice", "assay": "von Frey test, vincristine-induced peripheral sensory neuropathy", "from_the_text": "The mice in the three groups in the above (1) were put in a cage and a filament having a strength of 0.16 g was pressed on the plantar surface of the leg to measure the number of times (a score) of avoidance response.\nIn the present test, the mice were divided into three groups by a difference in test objects. As in Example 1, male Balb/c mice of 6 to 7 weeks old were used. The mice were divided into a total of three groups, a control group, a vincristine administration group, and a vincristine and Lentinus edodes mycelium extract administration group (vincristine+Lentinus edodes mycelium extract administration group).\nVincristine was administered to each mouse once a day at a dose of 0.2 mg/kg. Further, the Lentinus edodes mycelium extract was administered to each mouse once a day at a dose of 2 g/kg.\nFurther, the number of times of administration was set to once a week (on Day 0, Day 7, and Day 14) for vincristine and daily (from Day 0 to Day 15) for the Lentinus edodes mycelium extract in both the von Frey test and the cold plate test below.\nEvaluation was performed in the same manner as in the test with oxaliplatin in Example 1. Referring to FIG. 5, the horizontal axis indicates an elapsed time after administration (days) and the vertical axis indicates the avoidance response (scores). Open circles with a solid line represent the control group. Filled circles with a solid line represent the group in which only vincristine was administered. Open squares with a dash line represent the group in which vincristine and the Lentinus edodes mycelium extract were administered at the same time (vincristine+Lentinus edodes mycelium extract administration group). When the difference with the control group was determined to be significant using a significance level of 5%, the data were marked by “*”.\nIn the present test, the mice were divided into six groups by a difference in test objects. As in Example 1, male Balb/c mice of 6 to 7 weeks old were used. […]"}, "[3]": {"test_system": "Peripheral Sensory Neuropathy Induced by Oxaliplatin in Mice", "assay": "cold plate test, oxaliplatin-induced peripheral sensory neuropathy", "procedure": "Male Balb/c mice of 6 to 7 weeks old were used. The mice were divided into three groups: a control group, an oxaliplatin administration group, and an oxaliplatin and Lentinus edodes mycelium extract administration group (oxaliplatin+Lentinus edodes mycelium extract administration group). Oxaliplatin was administered to each mouse once a day at a dose of 6 mg/kg. Further, the Lentinus edodes mycelium extract was administered to each mouse once a day at a dose of 2 g/kg.\nFurther, the number of times of administration was set to once a week (on Day 0, Day 7, and Day 14) for oxaliplatin and daily (from Day 0 to Day 15) for the Lentinus edodes mycelium extract in both the von Frey test and the cold plate test below.\nOxaliplatin was administered to each mouse once a day at a dose of 6 mg/kg. Further, the Lentinus edodes mycelium extract was administered to each mouse once a day at a dose of 2 g/kg three days or six days after the administration of oxaliplatin. These groups are referred to as “Lentinus edodes mycelium extract 3-day delayed administration group” and “Lentinus edodes mycelium extract 6-day delayed administration group”, respectively.\nFurther, groups in which duloxetine was administered after the administration of oxaliplatin were prepared for comparison."}}, "data": [{"smiles": "CNCC[C@H](Oc1cccc2ccccc12)c1cccs1", "note": "[duloxetine]", "values": [{"measurement": "latency compared with paclitaxel administration group, cold plate test", "setting": "[1]; 3-day delayed after paclitaxel", "result": "almost the same as that in the paclitaxel administration group"}, {"measurement": "latency, cold plate test", "setting": "[1]; 6-day delayed after paclitaxel", "result": "same tendency as that in the duloxetine 3-day delayed administration group"}, {"measurement": "avoidance score compared with vincristine administration group, von Frey test", "setting": "[2]; 3-day delayed after vincristine", "result": "almost the same score as that in the vincristine administration group"}, {"measurement": "avoidance score, von Frey test", "setting": "[2]; 6-day delayed after vincristine", "result": "same tendency as that in the duloxetine 3-day delayed administration group"}, {"measurement": "latency compared with oxaliplatin administration group, cold plate test", "setting": "[3]; 3-day delayed after oxaliplatin", "result": "almost the same as that in the oxaliplatin administration group"}, {"measurement": "latency, cold plate test", "setting": "[3]; 6-day delayed after oxaliplatin", "result": "same tendency as that in the duloxetine 3-day delayed administration group"}]}]}
